Experimental data as given in patent US10471063B2, “Drug combination of PDE3/PDE4 inhibitor and muscarinic receptor antagonist” (VERONA PHARMA PLC, priority 2013, dated 2019).
Where two headings read alike, the source gives them in different places. Marks after values point to notes of the source that are not given here. Each block holds one molecule with its values, some of them ahead of it.

Assays:
[1] = system: human isolated bronchioles (small bronchi <1 mm diameter); test: Relaxation of small human bronchi in precision cut lung slices contracted with carbachol (EC70); assay type: cell-based; details: for IC50: Homo sapiens, relaxation of bronchioles, CCh EC70, mean±SEM, n=3, read-out: pD2 (negative logarithm of IC50) (converted)
Description: Precision cut lung slices (PCLSs) from 6 patients were incubated in Krebs-Henseleit solution (37° C.) aerated with O2/CO2 (95:5%). The concentration response to RPL554 and glycopyrronium, administered alone and in combination at isoeffective concentrations, was assessed at sub-maximal contraction (70% maximum, EC70) induced by carbachol (CCh). […] Drug mixture effects were analyzed by Bliss Independence theory. Values (n=3) are mean±SEM.

[2] = system: passively sensitized human isolated bronchi; test: Contraction induced by histamine in passively sensitized human bronchi pre-incubated with RPL554; assay type: cell-based
Description: Human isolated bronchial rings were rotated overnight at room temperature in tubes containing KH buffer solution in the absence (non-sensitized control rings) or the presence of 10% vol^−1 sensitizing serum (sensitized rings) as described elsewhere (Watson et al., 1997; Rabe, 1998). Subjects suffering from atopic asthma (total IgE>250 U ml^−1 specific against common aeroallergens) during exacerbation provided signed consent for serum donation. Sera was prepared by centrifugation of whole blood and sera samples were frozen at −80° C. in […] until required.
The next morning, after removal of adhering alveolar and connective tissues, bronchial rings were transferred into an organ bath containing KH buffer (37° C.) and continuously gassed with a 95% O2/5% CO2. Tissues were pre-incubated for 30 min with RPL554 (1, 10 and 100 μM) and then followed (without washing) by the construction of concentration responses curve to histamine (10 nM-1 mM) in the presence of RPL554.
Appropriate curve-fitting to a sigmoidal model was used to calculate the effect (E), the Emax and the concentration required to cause a 50% maximal effect (EC50). The equation used was log [agonist] vs. response, Variable slope, expressed as Y=Bottom+(Top−Bottom)/{1+10^[(Log EC50−X)*HillSlope]} (Motulsky and Christopoulos, 2004; Goodman et al., 2008). E/Emax was expressed as percentage of Emax elicited by the contractile agents; EC50 values were converted to pD2 for statistical analysis (Goodman et al., 2008) and the relaxant responses were expressed as a percentage of papaverine (500 μM) induced relaxation.

human isolated bronchi = test: Duration of action on EFS (3, 10, 25 Hz)-contracted human isolated bronchi, RPL554 and glycopyrronium at EC30; assay type: cell-based; details: administered alone
Description: Bronchial rings from 6 patients were incubated in Krebs-Henseleit solution (37° C.) aerated with O2/CO2 (95/5%) under 0.5-1.0 g tension. The duration of action (30% maximal relaxation, EC30) of RPL554 and glycopyrronium, alone or in combination, was studied in tissue contracted with 3, 10 or 25 Hz electrical field stimulation (EFS). Bronchial tone was expressed as % of maximal response to papaverine (Emax) and the area under the curve (AUC) of the contractile response was assessed. Drug mixture effects were analyzed by Bliss Independence theory. Values (n=3) are mean±SEM.

[3] = system: airways obstruction induced by bombesin in guinea pigs; test: Reversal of bombesin-induced airways obstruction (total lung resistance); assay type: in vivo
Description: (§1) Guinea pigs were anaesthetised and ventilated. Airway obstruction was induced by the intravenous administration of bombesin (2 μg/ml; 5 ml/hr). Bronchodilation was induced by the iv. administration of RPL554 alone at various doses, or in combination with sub maximal doses of atropine (2 μg/kg). […] Total lung resistance (RL) and mean arterial blood pressure were measured. Data are expressed as % reduction in airways obstruction or blood pressure.

[4] = Mean arterial blood pressure in bombesin-treated anaesthetised guinea pigs; assay type: in vivo; details: RPL554 20 μg/kg iv (combination: + 2 μg/kg atropine)
Description: as §1

[5] = system: human isolated bronchial preparations; test: Inhibition of EFS (10 Hz)-induced contraction of human isolated bronchial rings; assay type: cell-based
Description: Regions of macroscopically normal lungs were taken from uninvolved areas resected from 24 subjects (11 male and 13 female, 60.1±1.6 years old) undergoing lobectomy surgery for lung cancer, but without a history of chronic airway disease.
Airways were immediately placed into oxygenated Krebs-Henseleit buffer solution (KH) (mM: NaCl 119.0, KCl 5.4, CaCl2 2.5, KH2PO4 1.2, MgSO4 1.2, NaHCO3 25.0, glucose 11.7; pH 7.4) containing the cyclooxygenase (COX) inhibitor indomethacin (5.0 μM), and transported at 4° C. from the “Regina Elena National Cancer Institute” or the “Sant' Andrea Hospital” to the Respiratory Research Laboratory in the Surgery and Medicine Faculty of “Tor Vergata University”, Rome, Italy. None of the subjects were chronically treated with theophylline, β2-agonists or glucocorticosteroids. Serum IgE levels determined on the day of surgery were in the normal range. Preoperative lung function parameters were generally normal and there were no signs of respiratory infections.
In the laboratory, airways were dissected from connective and alveolar tissues. Then, segmental bronchi were isolated and stored overnight in KH buffer solution at refrigeration temperature. […]
Human bronchi were placed in organ baths containing KH buffer solution (37° C.) medicated with indomethacin (5.0 μM), bubbled with 95% O2/5% CO2 and suspended under passive tension (0.5-1.0 g). […] Changes in isometric tension were measured with a transducer (Fort 10 WPI, Basile, Instruments, Italy) and the tissue responsiveness was assessed by acetylcholine (100 μM); when the response reached a plateau, rings were washed three times and allowed to equilibrate for 45 min. […]
Bronchial contractile tension induced by EFS was measured as a percentage of control bronchi, and polynomial curves were constructed by fitting models of biological data using nonlinear regression as described elsewhere (Motulsky and Christopoulos, 2004). […]

[6] = system: human isolated bronchial rings; test: Relaxation of human isolated bronchial rings pre-contracted with acetylcholine (EC70); synergy analysis (Bliss Independence, Berenbaum); assay type: cell-based
Description: In the laboratory, airways were dissected from connective and alveolar tissues. Then, segmental bronchi were isolated and stored overnight in KH buffer solution at refrigeration temperature. […] Bronchial rings were mounted on hooks in the organ baths where one hook was attached with threaded to a stationary rod and the other hook tied with thread to an isometric force displacement transducer. […] Then, concentration response curves were constructed to test individual compound RPL554 and muscarinic receptor antagonist alone; as well as RPL554 administered in combination with a muscarinic receptor antagonist in order to produce isobolar graphs as described elsewhere (Greco et al., 1995; Tallarida, 2001; Goldoni and Johansson, 2007; Boik et al., 2008; Lee, 2010). […] Goodman et al., 2008). E/Emax was expressed as percentage of Emax elicited by the contractile agents; […] The analysis of the potential synergism between RPL554 plus muscarinic receptor antagonist was measured by applying the Berenbaum method, the Bliss Independence (BI) criterion and the Loewe Additivity (LA) model through curved isoboles (Berenbaum, 1977; Greco et al., 1995; Grabovsky and Tallarida, 2004; Tallarida, 2006; Goldoni and Johansson, 2007; Tallarida and Raffa, 2010). […] Lee, 2010). The BI theory for two agents is expressed by the following equation: E(x,y)=Ex+Ey-(Ex*Ey), where E is the fractional effect, and x and y are the concentrations of two compounds in a combination experiment. If the combination effect is higher than the expected value from the above equation, the interaction is considered synergistic, while if this effect is lower, the interaction is antagonistic. […] In this study, the BI equation was characterized by X=RPL554 and Y=muscarinic receptor antagonist. […] The additive response (Eab) for each dose combination with respect to B was then calculated by insertion of B into EB=f(B). The difference between the observed relaxation response to the combination doses and the additive response was calculated and analysed using a one sample t-test and for multiple comparisons, the probability was adjusted for multiple comparisons using a Bonferroni correction. For illustrative purposes, the 1:1 dose combinations were analysed for synergy. […] Tallarida, 2001; Goldoni and Johansson, 2007; Boik et al., 2008; Lee, 2010).

IC50 [1]: 1 µM
EC50 ([6]; relaxation of acetylcholine pre-contracted bronchi, n=5, read-out: EC50 (geomean, 95% CI)): 21.2 µM
Compound: COc1cc2c(cc1OC)-c1cc(=Nc3c(C)cc(C)cc3C)n(CCNC(N)=O)c(=O)n1CC2 [RPL554, 9,10-Dimethoxy-2-(2,4,6-trimethylphenylimino)-3-(N-carbamoyl-2-aminoethyl)-3,4,6,7-tetrahydro-2H-pyrimido[6,1-a]isoquinolin-4-one]
Effect on CCh-induced contraction [1]: abolished
Emax at 1 µM ([2]; Homo sapiens, RPL554 1 uM, mean ± SEM, n=5): 70.3 ± 2.7%
Emax at 10 µM ([2]; Homo sapiens, RPL554 10 uM, mean ± SEM, n=5): 58.1%
pD2 of histamine ([2]; RPL554 1 uM): 4.97 ± 0.07***
pD2 of histamine ([2]; RPL554 10 uM): 4.98
Effect on contraction induced by histamine ([2]; RPL554 100 μM): completely abolished
Time for which the effect was detectable (human isolated bronchi): 4 h
Time of maximal relaxation (human isolated bronchi): 160 ± 20 min
% Reduction in airways obstruction ([3]; RPL554 10 μg/kg iv (combination: + atropine 2 μg/kg)): 7.4 + 1.9%
% Reduction in airways obstruction ([3]; RPL554 20 μg/kg iv (combination: + atropine 2 μg/kg)): 24.6 + 4.3%
% Reduction in airways obstruction ([3]; RPL554 40 μg/kg iv (combination: + atropine 2 μg/kg)): 55.2 + 6.2%
% Reduction in airways obstruction ([3]; RPL554 80 μg/kg iv (combination: + atropine 2 μg/kg)): 65.1 + 5.3%
reduction in mean arterial blood pressure [4]: 37.3+6.7%
Emax at 100 µM ([5]; Homo sapiens, RPL554 100 μM, 10 Hz EFS, read-out: Emax, inhibition of contractile response induced by EFS): 91.3 ± 3.37%
T1/2 (offset, time to evoke half of maximal relaxation) ([5]; RPL554 100 μM, 10 Hz EFS): 23.7 ± 12.3 min
Duration of inhibition of EFS contractile response after exposure ([5]; after termination of drug exposure): at least 5 h
Emax ([6]; acetylcholine EC70 pre-contraction, percentage of papaverine (500 μM) relaxation, mean±SD, n=5, read-out: Emax (relaxation)): 100%

Compound: CN1[C@@H]2CC[C@H]1C[C@@H](OC(=O)C(CO)c1ccccc1)C2 (some centres unmarked) [atropine, reference compound]
reduction in airways obstruction ([3]; atropine 2 μg/kg alone): 22.3 ± 4.9%
EC50 ([6]; read-out: EC50 (geomean, 95% CI)): 1.18 µM
Emax ([6]; read-out: Emax (relaxation)): 66 ± 14%

IC50 [1]: 0.000631 µM
Compound: C[N+]1(C)CCC(OC(=O)C(O)(c2ccccc2)C2CCCC2)C1 (centres unmarked) [glycopyrronium, reference compound]
Effect on CCh-induced contraction [1]: abolished
Time for which the effect was detectable (human isolated bronchi): 4 h
Time of maximal relaxation (human isolated bronchi): 50 ± 10 min
